These results are taken from patent publication US12516056B2, “Compounds for inhibition of janus kinase 1” (MANKIND PHARMA LTD., priority 2019, dated 2026).

The target of experiment [1] is T1, Recombinant JAK2 (Homo sapiens, UniProt O60674).
T1 construct: purchased Carna Biosciences
The experiment is described as follows: JAK biochemical assay (LANCE Ultra TR-FRET), JAK2. The conditions noted are these: recombinant JAK2, TR-FRET; read-out: Biochemical Assay (μM) JAK2. An outline of the steps: (§1)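 TR-FRET read-out of ULight substrate phosphorylation by recombinant kinase gives % inhibition relative to vehicle. The assay buffer is HEPES pH 7.5 with EGTA, MgCl2, DTT and Tween-20.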

For experiment [2], the target named is T2, Recombinant JAK3 (Homo sapiens, UniProt P52333).
T2 construct: purchased Carna Biosciences
T2 sequence (P52333 1-1124): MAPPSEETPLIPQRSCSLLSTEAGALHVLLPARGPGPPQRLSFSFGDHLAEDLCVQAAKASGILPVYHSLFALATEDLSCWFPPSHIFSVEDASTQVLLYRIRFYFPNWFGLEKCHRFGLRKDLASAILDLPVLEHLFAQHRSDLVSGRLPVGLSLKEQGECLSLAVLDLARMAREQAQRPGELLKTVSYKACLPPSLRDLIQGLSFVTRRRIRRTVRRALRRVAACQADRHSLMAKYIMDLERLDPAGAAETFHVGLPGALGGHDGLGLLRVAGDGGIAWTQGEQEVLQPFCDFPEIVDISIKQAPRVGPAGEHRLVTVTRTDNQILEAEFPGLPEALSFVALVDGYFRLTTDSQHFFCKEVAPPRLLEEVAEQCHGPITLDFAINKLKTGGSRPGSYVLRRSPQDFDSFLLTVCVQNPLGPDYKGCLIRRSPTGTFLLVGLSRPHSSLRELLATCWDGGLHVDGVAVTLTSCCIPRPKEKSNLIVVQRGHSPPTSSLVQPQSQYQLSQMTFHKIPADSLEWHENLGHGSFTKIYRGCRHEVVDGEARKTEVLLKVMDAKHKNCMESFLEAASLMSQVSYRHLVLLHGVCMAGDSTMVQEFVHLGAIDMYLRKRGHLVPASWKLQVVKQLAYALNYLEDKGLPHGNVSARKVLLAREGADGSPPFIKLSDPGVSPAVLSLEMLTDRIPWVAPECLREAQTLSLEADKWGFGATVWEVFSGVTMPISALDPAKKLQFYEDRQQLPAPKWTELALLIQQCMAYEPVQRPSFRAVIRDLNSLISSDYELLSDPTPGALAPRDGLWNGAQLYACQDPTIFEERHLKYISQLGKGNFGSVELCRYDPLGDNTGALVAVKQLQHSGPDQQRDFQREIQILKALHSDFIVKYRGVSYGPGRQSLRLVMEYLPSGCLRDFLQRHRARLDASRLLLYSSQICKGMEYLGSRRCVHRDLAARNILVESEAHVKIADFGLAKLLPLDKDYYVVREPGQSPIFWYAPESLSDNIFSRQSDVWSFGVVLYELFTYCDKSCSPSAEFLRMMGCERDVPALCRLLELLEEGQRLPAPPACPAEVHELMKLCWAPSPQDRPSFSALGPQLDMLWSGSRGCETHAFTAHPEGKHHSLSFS
Briefly: JAK biochemical assay (LANCE Ultra TR-FRET), JAK3. The conditions noted are these: recombinant JAK3, TR-FRET; read-out: Biochemical Assay (μM) JAK3. An outline of the steps:
as §1

Experiment [3] has as its system STAT3 phosphorylation by IL-6 in TF-1 cells. Briefly: JAK cellular assay: STAT3 phosphorylation by IL-6 in TF-1 cells (HTRF). Format: cell-based. The conditions noted are these: Homo sapiens, TF-1, TF-1 cells, IL-6 30 ng/ml, pSTAT3 HTRF; read-out: Cell Based Assay (μM) TF-1/IL-6/pSTAT3. An outline of the steps: (§2)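 Phospho-STAT3 (IL-6, 30 ng/ml) and phospho-STAT5 (GMCSF, 5 ng/ml) read by HTRF in lysates after 20 min cytokine exposure, minus unstimulated-cell background. Cells were serum-starved overnight, plated at 120,000/well, given compound 30 min at 37 °C beforehand; DMSO 0.2% final.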

For experiment [4], the system named is STAT5 phosphorylation by GMCSF in TF-1 cells. Briefly: JAK cellular assay: STAT5 phosphorylation by GMCSF in TF-1 cells (HTRF). The conditions noted are these: Homo sapiens; TF-1 cells, GMCSF 5 ng/ml, pSTAT5 HTRF; read-out: Cell Based Assay (μM) TF-1/GMCSF/pSTAT5. The format is cell-based. An outline of the steps:
as §2

For experiment [5], the target named is T3, Recombinant JAK1 (Homo sapiens, UniProt P23458).
T3 construct: purchased Carna Biosciences
Briefly: JAK biochemical assay (LANCE Ultra TR-FRET), JAK1. To be noted: recombinant JAK1, TR-FRET; read-out: Biochemical Assay (μM) JAK1. A digest of the protocol: as §1

The target of experiment [6] is T4, Recombinant TYK2 (Homo sapiens, UniProt P29597).
T4 construct: purchased Carna Biosciences
Briefly: JAK biochemical assay (LANCE Ultra TR-FRET), TYK2. To be noted: recombinant TYK2, TR-FRET; read-out: Biochemical Assay (μM) TYK2. An outline of the steps: as §1

Each structure is given as a SMILES string.

T3 sequence (P23458 whole entry): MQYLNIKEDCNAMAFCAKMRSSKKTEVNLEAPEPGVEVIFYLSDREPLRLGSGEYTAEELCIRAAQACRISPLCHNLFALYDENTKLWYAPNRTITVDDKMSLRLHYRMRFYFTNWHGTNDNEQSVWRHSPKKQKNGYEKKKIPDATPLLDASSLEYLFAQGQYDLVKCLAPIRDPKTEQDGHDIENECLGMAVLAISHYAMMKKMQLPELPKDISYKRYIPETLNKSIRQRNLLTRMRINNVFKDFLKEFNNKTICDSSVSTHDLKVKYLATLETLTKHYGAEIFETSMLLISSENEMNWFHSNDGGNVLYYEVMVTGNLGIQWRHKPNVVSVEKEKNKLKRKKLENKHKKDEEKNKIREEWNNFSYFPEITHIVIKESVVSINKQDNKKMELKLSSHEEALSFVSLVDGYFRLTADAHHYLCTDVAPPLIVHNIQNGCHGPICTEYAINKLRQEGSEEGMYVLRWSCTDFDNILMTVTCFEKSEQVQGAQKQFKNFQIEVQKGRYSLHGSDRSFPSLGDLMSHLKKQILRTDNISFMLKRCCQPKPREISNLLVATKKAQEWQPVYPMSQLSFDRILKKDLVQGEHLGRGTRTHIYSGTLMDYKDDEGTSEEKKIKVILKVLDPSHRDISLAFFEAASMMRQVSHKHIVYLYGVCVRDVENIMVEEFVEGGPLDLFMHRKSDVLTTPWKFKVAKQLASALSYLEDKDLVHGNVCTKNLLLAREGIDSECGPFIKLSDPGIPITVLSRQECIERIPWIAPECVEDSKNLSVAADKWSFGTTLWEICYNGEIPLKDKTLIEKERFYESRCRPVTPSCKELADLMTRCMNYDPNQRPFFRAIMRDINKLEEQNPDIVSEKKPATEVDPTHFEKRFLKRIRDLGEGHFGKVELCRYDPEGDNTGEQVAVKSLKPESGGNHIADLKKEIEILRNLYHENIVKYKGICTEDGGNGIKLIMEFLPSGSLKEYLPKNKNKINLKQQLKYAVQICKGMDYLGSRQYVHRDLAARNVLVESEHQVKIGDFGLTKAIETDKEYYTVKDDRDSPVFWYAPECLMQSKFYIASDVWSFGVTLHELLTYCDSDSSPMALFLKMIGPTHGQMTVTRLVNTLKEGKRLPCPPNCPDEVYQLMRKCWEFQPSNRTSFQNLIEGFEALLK
T4 sequence (P29597 whole entry): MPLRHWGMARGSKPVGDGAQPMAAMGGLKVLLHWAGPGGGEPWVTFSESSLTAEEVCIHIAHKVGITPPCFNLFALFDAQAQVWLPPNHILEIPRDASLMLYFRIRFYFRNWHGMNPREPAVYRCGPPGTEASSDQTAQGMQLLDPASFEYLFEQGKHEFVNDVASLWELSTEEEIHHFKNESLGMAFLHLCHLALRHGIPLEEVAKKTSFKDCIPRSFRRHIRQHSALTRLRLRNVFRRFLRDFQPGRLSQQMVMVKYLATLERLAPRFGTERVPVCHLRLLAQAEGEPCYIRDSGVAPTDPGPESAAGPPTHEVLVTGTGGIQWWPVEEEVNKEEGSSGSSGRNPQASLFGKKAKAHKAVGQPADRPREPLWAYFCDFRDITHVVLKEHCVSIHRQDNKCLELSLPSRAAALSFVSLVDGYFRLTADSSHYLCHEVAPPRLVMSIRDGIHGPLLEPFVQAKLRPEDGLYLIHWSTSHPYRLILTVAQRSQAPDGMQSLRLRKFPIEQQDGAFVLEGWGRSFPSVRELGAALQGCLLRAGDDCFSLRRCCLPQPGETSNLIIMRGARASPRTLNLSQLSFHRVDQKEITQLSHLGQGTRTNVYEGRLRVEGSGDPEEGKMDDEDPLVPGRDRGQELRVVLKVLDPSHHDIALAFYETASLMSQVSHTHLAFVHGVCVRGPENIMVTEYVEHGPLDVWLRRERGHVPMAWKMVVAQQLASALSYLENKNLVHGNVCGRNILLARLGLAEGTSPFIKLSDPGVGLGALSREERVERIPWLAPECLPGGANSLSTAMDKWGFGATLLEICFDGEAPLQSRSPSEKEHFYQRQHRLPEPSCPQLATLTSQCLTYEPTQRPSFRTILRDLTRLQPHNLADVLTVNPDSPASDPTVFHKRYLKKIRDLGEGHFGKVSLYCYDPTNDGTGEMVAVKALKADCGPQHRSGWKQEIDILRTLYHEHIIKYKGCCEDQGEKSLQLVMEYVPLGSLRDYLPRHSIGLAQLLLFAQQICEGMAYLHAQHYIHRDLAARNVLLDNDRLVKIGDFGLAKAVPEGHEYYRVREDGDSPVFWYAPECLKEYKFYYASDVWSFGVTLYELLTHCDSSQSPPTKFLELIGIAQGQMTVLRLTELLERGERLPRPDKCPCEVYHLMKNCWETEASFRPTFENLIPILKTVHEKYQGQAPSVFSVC
T1 sequence (O60674 whole entry): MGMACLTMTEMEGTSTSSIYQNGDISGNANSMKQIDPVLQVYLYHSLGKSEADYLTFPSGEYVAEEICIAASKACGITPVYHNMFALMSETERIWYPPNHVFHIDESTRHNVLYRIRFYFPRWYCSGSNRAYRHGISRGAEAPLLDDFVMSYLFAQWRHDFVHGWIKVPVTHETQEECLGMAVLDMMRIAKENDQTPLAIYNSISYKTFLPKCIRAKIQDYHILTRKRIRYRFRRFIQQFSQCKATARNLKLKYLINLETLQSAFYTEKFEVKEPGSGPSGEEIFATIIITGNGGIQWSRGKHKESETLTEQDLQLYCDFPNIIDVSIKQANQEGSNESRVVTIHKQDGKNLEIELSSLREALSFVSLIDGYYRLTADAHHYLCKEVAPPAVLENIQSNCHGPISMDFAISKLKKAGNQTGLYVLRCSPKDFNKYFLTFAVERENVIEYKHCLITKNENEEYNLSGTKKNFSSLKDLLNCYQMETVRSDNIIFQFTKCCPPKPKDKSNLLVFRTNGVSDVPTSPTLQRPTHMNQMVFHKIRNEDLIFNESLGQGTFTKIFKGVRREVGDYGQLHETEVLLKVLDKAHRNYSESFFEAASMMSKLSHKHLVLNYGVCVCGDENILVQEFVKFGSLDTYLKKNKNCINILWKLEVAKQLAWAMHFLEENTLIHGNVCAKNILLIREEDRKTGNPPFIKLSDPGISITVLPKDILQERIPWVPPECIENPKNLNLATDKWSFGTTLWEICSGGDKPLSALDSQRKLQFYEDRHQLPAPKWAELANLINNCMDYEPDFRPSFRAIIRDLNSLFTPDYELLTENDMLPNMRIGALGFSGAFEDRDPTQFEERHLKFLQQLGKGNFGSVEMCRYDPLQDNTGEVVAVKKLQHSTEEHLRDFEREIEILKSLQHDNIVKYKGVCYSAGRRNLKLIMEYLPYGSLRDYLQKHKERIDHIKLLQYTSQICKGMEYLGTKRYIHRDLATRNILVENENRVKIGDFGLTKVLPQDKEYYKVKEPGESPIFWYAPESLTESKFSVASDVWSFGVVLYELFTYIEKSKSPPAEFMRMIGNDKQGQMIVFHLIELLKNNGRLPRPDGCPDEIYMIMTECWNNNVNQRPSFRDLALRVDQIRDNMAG

Turning to `N#C[C@H](NC(=O)n1cc(-c2ccnc3[nH]c(=O)[nH]c23)cn1)C1CC1` [Example 1054, N-((R)-cyano(cyclopropyl)methyl)-4-(2,3-dihydro-2-oxo-1H-imidazo[4,5-b]pyridin-7-yl)-1H-pyrazole-1-carboxamide], the IC50 was over 0.5 µM in experiment [1]; over 1 µM in experiment [2]; over 1 µM in experiment [3]; 10 µM in experiment [4]; over 10 µM in experiment [5]; over 1 µM in experiment [6].

Take `O=C(NCC(F)(F)F)n1cc(-c2ccnc3[nH]c(-c4ccccc4)nc23)cn1` [Example 1094, N-(2,2,2-trifluoroethyl)-4-(2-phenyl-3H-imidazo[4,5-b]pyridin-7-yl)-1H-pyrazole-1-carboxamide]: the IC50 in experiment [1] is under 0.5 µM; in experiment [2], under 0.5 µM; in experiment [3], over 1 µM; in experiment [4], over 1 µM; in experiment [5], under 0.5 µM; in experiment [6], under 0.5 µM.

As to `CS(=O)(=O)NCC(c1ccc(-n2cc(-c3ccnc4[nH]cnc34)cn2)nc1)C(F)(F)F` (stereo not drawn) [Example 1209], the IC50 in experiment [1] was under 0.1 µM; in experiment [2] it was under 0.1 µM; in experiment [3], over 0.75 µM; in experiment [4], over 1 µM; in experiment [5] it was under 0.1 µM; in experiment [6] it was over 1 µM.

For the compound `N#CC1CCN(C(=O)n2cc(-c3ccnc4[nH]c(=O)[nH]c34)cn2)C1` (stereo not drawn) [Example 1055, 1-(4-(2-oxo-2,3-dihydro-1H-imidazo[4,5-b]pyridin-7-yl)-1H-pyrazole-1-carbonyl)pyrrolidine-3-carbonitrile], the IC50 in experiment [1] was under 0.5 µM; in experiment [2], over 1 µM; in experiment [3], over 10 µM; in experiment [4], over 10 µM; in experiment [5] it was over 1 µM; in experiment [6] it was over 0.5 µM.

For the compound `N#CCc1coc(-n2cc(-c3ccnc4[nH]cnc34)cn2)n1` [Example 1075, 2-(2-(4-(3H-imidazo[4,5-b]pyridin-7-yl)-1H-pyrazol-1-yl)oxazol-4-yl)acetonitrile], the IC50 in experiment [1] is 0.19 µM; in experiment [2], under 0.5 µM; in experiment [3], 3.1 µM; in experiment [4] it was over 10 µM; in experiment [5], 0.046 µM; in experiment [6], over 1 µM.

For `CC(C#N)c1ccc(-n2cc(-c3ccnc4[nH]cnc34)cn2)nc1` (stereo not drawn) [Example 1107, 2-(6-(4-(3H-imidazo[4,5-b]pyridin-7-yl)-1H-pyrazol-1-yl)pyridin-3-yl)propanenitrile], the IC50 in experiment [1] was over 0.1 µM; in experiment [2], under 0.1 µM; in experiment [3], over 1 µM; in experiment [4], over 10 µM; in experiment [5], under 0.1 µM; in experiment [6], over 1 µM.

Regarding `CS(=O)(=O)Cc1ccc(-n2cc(-c3ccnc4[nH]cnc34)cn2)nc1` [Example 1080, 7-(1-(5-((methylsulfonyl)methyl)pyridin-2-yl)-1H-pyrazol-4-yl)-3H-imidazo[4,5-b]pyridine], the IC50 in experiment [1] was under 0.5 µM; in experiment [2], under 0.5 µM; in experiment [3] it was over 1 µM; in experiment [4] it was over 10 µM; in experiment [5] it was 0.068 µM; in experiment [6], over 10 µM.

`CC(C)N1CCC(C(O)(c2ccc(-n3cc(-c4ccnc5[nH]cnc45)cn3)nc2)C(F)(F)F)CC1` (stereo not drawn) [Example 1240, 1-(6-(4-(3H-imidazo[4,5-b]pyridin-7-yl)-1H-pyrazol-1-yl)pyridin-3-yl)-2,2,2-trifluoro-1-(1-isopropylpiperidin-4-yl)ethanol]: the IC50 in experiment [1] is over 0.03 µM; in experiment [2], over 0.03 µM; in experiment [3], over 0.5 µM; in experiment [4], over 1 µM; in experiment [5] it was over 0.01 µM; in experiment [6], over 1 µM.

`N#CC(NC(=O)n1cc(-c2ccnc3[nH]cnc23)cn1)c1ccccc1` (stereo not drawn) [Example 1070, N-(cyano(phenyl)methyl)-4-(3H-imidazo[4,5-b]pyridin-7-yl)-1H-pyrazole-1-carboxamide]: the IC50 was under 0.5 µM in experiment [1]; over 0.5 µM in experiment [2]; over 10 µM in experiment [3]; over 10 µM in experiment [4]; over 0.5 µM in experiment [5]; over 0.5 µM in experiment [6].

On to `CN1CCN(CCC(c2ccc(-n3cc(-c4ccnc5[nH]cnc45)cn3)nc2)C(F)(F)F)CC1` (stereo not drawn) [Example 1219, 7-(1-(5-(1,1,1-trifluoro-4-(4-methylpiperazin-1-yl)butan-2-yl)pyridin-2-yl)-1H-pyrazol-4-yl)-3H-imidazo[4,5-b]pyridine], for which the IC50 in experiment [1] is under 0.1 µM; in experiment [2], under 0.1 µM; in experiment [3] it was over 0.75 µM; in experiment [4], over 1 µM; in experiment [5], under 0.1 µM; in experiment [6], over 0.5 µM.

Take `N#CC(NC(=O)n1cc(-c2ccnc3[nH]c(=O)[nH]c23)cn1)C1CC1` (stereo not drawn) [Example 1043, N-(cyano(cyclopropyl)methyl)-4-(2,3-dihydro-2-oxo-1H-imidazo[4,5-b]pyridin-7-yl)-1H-pyrazole-1-carboxamide]: the IC50 in experiment [1] is 0.031 µM; in experiment [2] it was 0.123 µM; in experiment [3], 4.7 µM; in experiment [4], over 10 µM; in experiment [5] it was 0.03 µM; in experiment [6], 0.053 µM.

For the compound `N#CC1CN(C(=O)n2cc(-c3ccnc4[nH]c(=O)[nH]c34)cn2)C1` [Example 1048, 1-(4-(2-oxo-2,3-dihydro-1H-imidazo[4,5-b]pyridin-7-yl)-1H-pyrazole-1-carbonyl)azetidine-3-carbonitrile], the IC50 in experiment [1] is under 0.5 µM; in experiment [2] it was under 0.5 µM; in experiment [3] it was over 10 µM; in experiment [4], over 10 µM; in experiment [5], under 0.5 µM; in experiment [6], under 0.5 µM.

In the case of `CN(CCC(c1ccc(-n2cc(-c3ccnc4[nH]cnc34)cn2)nc1)C(F)(F)F)C1CC1` (stereo not drawn) [Example 1195, N-(3-(6-(4-(3H-imidazo[4,5-b]pyridin-7-yl)-1H-pyrazol-1-yl)pyridin-3-yl)-4,4,4-trifluorobutyl)-N-methylcyclopropanamine], the IC50 in experiment [1] is under 0.1 µM; in experiment [2] it was under 0.1 µM; in experiment [3], over 0.5 µM; in experiment [4] it was over 1 µM; in experiment [5] it was under 0.1 µM; in experiment [6], over 1 µM.

In the case of `CC1CN(C(=O)n2cc(-c3ccnc4[nH]cnc34)cn2)CC1C#N` (stereo not drawn) [Example 1074, 1-(4-(3H-imidazo[4,5-b]pyridin-7-yl)-1H-pyrazole-1-carbonyl)-4-methylpyrrolidine-3-carbonitrile], the IC50 is over 1 µM in experiment [1]; over 1 µM in experiment [2]; over 10 µM in experiment [3]; over 10 µM in experiment [4]; over 10 µM in experiment [5]; over 1 µM in experiment [6].

For `N#CCC(c1ccc(-n2cc(-c3ccnc4[nH]cnc34)cn2)nc1)C(F)(F)F` (stereo not drawn) [Example 1123, 3-(6-(4-(3H-imidazo[4,5-b]pyridin-7-yl)-1H-pyrazol-1-yl)pyridin-3-yl)-4,4,4-trifluorobutanenitrile], the IC50 in experiment [1] was over 0.5 µM; in experiment [2], over 0.1 µM; in experiment [3], over 1 µM; in experiment [4] it was 10 µM; in experiment [5], over 0.1 µM; in experiment [6], over 1 µM.
